Results published in paper PMC10307035, “Antiviral activity of singlet oxygen-photogenerating perylene compounds against SARS-CoV-2: Interaction with the viral envelope and photodynamic virion inactivation” (Virus Research, 2023).

What was measured:
[1] = tested on: SARS-CoV-2 (Wuhan variant); assay: Quantification of viral RNA synthesis by RT-qPCR; format: cell-based; details: 10 µM, Vero cells, 48 h
[2] = tested on: SARS-CoV-2 (Wuhan variant); assay: Viral membrane interaction study (virus pre-treatment at 37 °C or 4 °C); format: cell-based; details: 10 µM; for virus' viability after pre-treatment at 4 °C (assay B): 1 h at 4 °C; for virus' ability to form plaques after pre-treatment at 37 °C (assay A): 1 h at 37 °C
[3] = tested on: SARS-CoV-2 (Wuhan variant); assay: Fusion assay; details: for reduction in plaque numbers (fusion assay): 1 and 10 µM, compounds added after virus attachment at 4 °C, then 37 °C

Structure (SMILES): O=C(NCCCCO)c1ccc(-c2ccc3c4cccc5cccc(c6cccc2c63)c54)s1 [Compound 17]
- synthesis of viral genomic RNA [1]: suppressed the synthesis of viral genomic RNA
- virus' viability after pre-treatment at 4 °C (assay B) [2]: partially restored
- virus' ability to form plaques after pre-treatment at 37 °C (assay A) [2]: completely inhibited
- cytotoxicity to Vero cells in the fusion assay ([3]; 10 µM): observable cytotoxicity
- reduction in plaque numbers (fusion assay) [3]: statistically significant reduction in plaque numbers

Structure (SMILES): CC(C)(C)C(=O)OCn1c(=O)c(C#Cc2ccc3c4cccc5cccc(c6cccc2c63)c54)cn(CC(=O)N(CCO)CCO)c1=O [Compound 13]
- synthesis of viral genomic RNA [1]: suppressed the synthesis of viral genomic RNA
- virus' viability after pre-treatment at 4 °C (assay B) [2]: partially restored
- virus' ability to form plaques after pre-treatment at 37 °C (assay A) [2]: completely inhibited
- reduction in plaque numbers (fusion assay) [3]: statistically significant reduction in plaque numbers

Structure (SMILES): O=c1[nH]c(=O)n([C@H]2C[C@H](O)[C@@H](CO)O2)cc1C#Cc1ccc2c3cccc4cccc(c5cccc1c52)c43 [Compound 2, 5-(perylen-3-yl)ethynyl-2′-deoxy-uridine]
- synthesis of viral genomic RNA [1]: suppressed the synthesis of viral genomic RNA
- virus' viability after pre-treatment at 4 °C (assay B) [2]: partially restored
- virus' ability to form plaques after pre-treatment at 37 °C (assay A) [2]: completely inhibited
- reduction in plaque numbers (fusion assay) [3]: significantly decreased plaque counts only at 10 µM
